The values that follow come from ChEMBL document CHEMBL3137667, “[Drug-induced liver injury; fourteenth updated edition of the bibliographic database of liver injuries and related drugs]” (Gastroenterol Clin Biol, 2004).

Each structure is given as a SMILES string.

The nature of data set [1]: Highest frequency of moderate liver toxicity observed during clinical trials, expressed as a percentage. [column '% BIOL' in source]. Particulars: human.
The nature of data set [2]: Highest frequency of acute liver toxicity observed during clinical trials, expressed as a percentage. [column '% AIGUE' in source]. The note with it: human.
The nature of data set [3]: Times to onset, minimal and maximal, observed in the indexed observations. [column 'DELAI' in source]. The note with it: human.
The conditions of data set [4]: human, serum.
For data set [5] the following is noted: human, serum. The source holds these as a separate data set.
The conditions of data set [6]: human.
The conditions of data set [7]: human. This is another data set of the same source.
The conditions of data set [8]: human. The source holds these as a separate data set.
For data set [9] the following is noted: human, serum, 4383 h.
For data set [10] the following is noted: human. The source holds these as a separate data set.
For data set [11] the following is noted: human. The source holds these as a separate data set.
The conditions of data set [12]: human. This is another data set of the same source.
The conditions of data set [13]: human. This is another data set of the same source.
For data set [14] the following is noted: human. The source holds these as a separate data set.
For data set [15] the following is noted: human. This is another data set of the same source.
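Wherever Hepatotoxicity (association with vascular disease) is given: count of indexed literature references reporting vascular liver injury in humans, e.g. peliosis hepatitis, hepatic veno-occlusive disease or Budd-Chiari syndrome.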
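Wherever Hepatotoxicity (benign tumour) is given: value is a count of indexed literature references citing a benign tumour confirmed by histopathology.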
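Wherever Hepatotoxicity (choleostasis) is given: human cholestatic liver injury, shown by histopathology or by peak ALT or AST elevation over alkaline phosphatase ratio below 2, value counts indexed literature reports.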
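Wherever Hepatotoxicity (chronic liver disease) is given: chronic liver injury confirmed by histopathology or persistently raised serum aminotransferase activity beyond 6 months, value given as the count of indexed literature references.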
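Wherever Hepatotoxicity (cirrhosis) is given: value is a count of indexed literature references reporting cirrhosis confirmed by histopathology.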
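Wherever Hepatotoxicity (cytolytic) is given: human cytolytic liver injury, shown by histopathology or by a ratio above 5 of peak ALT or AST elevation to alkaline phosphatase elevation, value counts indexed references.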
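Wherever Hepatotoxicity (granulomatous hepatitis) is given: value is a count of indexed literature references reporting granulomatous liver disease confirmed by histopathology.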
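Wherever Hepatotoxicity (malignant tumour) is given: malignant tumour confirmed by histopathology, value gives the count of indexed literature references reporting it.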
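Wherever Hepatotoxicity (severe hepatitis) is given: human clinical data: severe hepatitis, meaning potentially life-threatening liver failure or clinically observed cases, the value counts how many indexed literature references report it.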
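Wherever Hepatotoxicity (steatosis) is given: steatosis confirmed by histopathology, value is the count of indexed references.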

As for `Cc1c(C(C)C)c(=O)n(-c2ccccc2)n1C` [PROPYPHENAZONE], the “Hepatotoxicity (moderate)” value worked out at 0% in [1] and 0 in data set [4]. Moreover, the “Hepatotoxicity (acute)” value came to 0% in data set [2] and 3 in data set [5]. The “Hepatotoxicity (time to onset)” value in data set [3] was 2 days - 2 years. For the same compound, the “Hepatotoxicity (cytolytic)” value in data set [6] is on record as 1. Also, the “Hepatotoxicity (choleostasis)” value in [7] was determined as 0. Moreover, the “Hepatotoxicity (severe hepatitis)” value in data set [8] worked out at 0. Besides, in [9], the “Hepatotoxicity (chronic liver disease)” value was determined as 0. The “Hepatotoxicity (cirrhosis)” value in data set [10] is reported as 0. Also, the “Hepatotoxicity (granulomatous hepatitis)” value in data set [11] is 2. In addition, the “Hepatotoxicity (association with vascular disease)” value in data set [12] worked out at 0. In [13], the “Hepatotoxicity (steatosis)” value is recorded as 0. In [14], the “Hepatotoxicity (malignant tumour)” value came to 0. Also, in data set [15], the “Hepatotoxicity (benign tumour)” value worked out at 0.

Take `N[C@@H]1CON=C1O` [CYCLOSERINE]: the “Hepatotoxicity (moderate)” value in [1] is on record as 13%; in data set [4], 3. The “Hepatotoxicity (acute)” value in data set [2] is listed as 5.4%; in [5], 2. The “Hepatotoxicity (time to onset)” value in data set [3] came out at 11 weeks. In data set [6], the “Hepatotoxicity (cytolytic)” value worked out at 2. Besides, the “Hepatotoxicity (choleostasis)” value in data set [7] is 0. For the same compound, the “Hepatotoxicity (severe hepatitis)” value in data set [8] is 1. In data set [9], the “Hepatotoxicity (chronic liver disease)” value came out at 0. For the same compound, in data set [10], the “Hepatotoxicity (cirrhosis)” value was 0. The “Hepatotoxicity (granulomatous hepatitis)” value in [11] came to 0. Besides, the “Hepatotoxicity (association with vascular disease)” value in data set [12] amounted to 0. The “Hepatotoxicity (steatosis)” value in data set [13] worked out at 0. The “Hepatotoxicity (malignant tumour)” value in [14] is 0. For the same compound, the “Hepatotoxicity (benign tumour)” value in data set [15] is 0.

Turning to `CC(O)(CS(=O)(=O)c1ccc(F)cc1)C(=O)Nc1ccc(C#N)c(C(F)(F)F)c1` (stereo not given) [BICALUTAMIDE], the “Hepatotoxicity (moderate)” value in data set [1] is on record as 6%; in data set [4] it was 1. Moreover, the “Hepatotoxicity (acute)” value in data set [2] turned out to be 0%; in [5], 1. Also, the “Hepatotoxicity (time to onset)” value in data set [3] is 2 days. Further, the “Hepatotoxicity (cytolytic)” value in data set [6] worked out at 1. The “Hepatotoxicity (choleostasis)” value in [7] amounted to 0. The “Hepatotoxicity (severe hepatitis)” value in data set [8] came out at 1. Also, the “Hepatotoxicity (chronic liver disease)” value in data set [9] is 0. Besides, in [10], the “Hepatotoxicity (cirrhosis)” value is 0. For the same compound, the “Hepatotoxicity (granulomatous hepatitis)” value in data set [11] is 0. Moreover, the “Hepatotoxicity (association with vascular disease)” value in data set [12] was 0. Also, the “Hepatotoxicity (steatosis)” value in data set [13] turned out to be 0. Also, the “Hepatotoxicity (malignant tumour)” value in data set [14] came to 0. For the same compound, the “Hepatotoxicity (benign tumour)” value in [15] is listed as 0.

Consider `Clc1ccccc1C(c1ccccc1)(c1ccccc1)n1ccnc1` [CLOTRIMAZOLE], for which the figures for the “Hepatotoxicity (moderate)” value in data set [1] and in [4] were 40% and 8, respectively. For the same compound, the “Hepatotoxicity (acute)” value turned out to be 0% in data set [2] and 0 in [5]. Besides, in data set [3], the “Hepatotoxicity (time to onset)” value is reported as 17 days. For the same compound, the “Hepatotoxicity (cytolytic)” value in data set [6] is on record as 0. The “Hepatotoxicity (choleostasis)” value in data set [7] is given as 0. For the same compound, the “Hepatotoxicity (severe hepatitis)” value in [8] worked out at 0. Also, the “Hepatotoxicity (chronic liver disease)” value in [9] is 0. For the same compound, the “Hepatotoxicity (cirrhosis)” value in [10] was found to be 0. In addition, in data set [11], the “Hepatotoxicity (granulomatous hepatitis)” value amounted to 0. Moreover, in data set [12], the “Hepatotoxicity (association with vascular disease)” value is reported as 0. Also, in data set [13], the “Hepatotoxicity (steatosis)” value is listed as 0. The “Hepatotoxicity (malignant tumour)” value in data set [14] was 0. Further, the “Hepatotoxicity (benign tumour)” value in data set [15] was determined as 0.

For `Sc1ncnc2[nH]ncc12` [TISOPURINE], the “Hepatotoxicity (moderate)” value in data set [1] stood at 0%; in data set [4], 0. Moreover, the figures for the “Hepatotoxicity (acute)” value in [2] and in [5] were 0% and 1, respectively. Also, in data set [3], the “Hepatotoxicity (time to onset)” value is listed as 1.5 months. Further, the “Hepatotoxicity (cytolytic)” value in data set [6] was determined as 1. In addition, the “Hepatotoxicity (choleostasis)” value in data set [7] turned out to be 0. Moreover, the “Hepatotoxicity (severe hepatitis)” value in data set [8] turned out to be 0. Further, in data set [9], the “Hepatotoxicity (chronic liver disease)” value turned out to be 0. Besides, the “Hepatotoxicity (cirrhosis)” value in [10] is given as 0. Besides, the “Hepatotoxicity (granulomatous hepatitis)” value in [11] worked out at 0. Further, in data set [12], the “Hepatotoxicity (association with vascular disease)” value was 0. Besides, the “Hepatotoxicity (steatosis)” value in [13] is listed as 0. Also, the “Hepatotoxicity (malignant tumour)” value in data set [14] is recorded as 0. Besides, the “Hepatotoxicity (benign tumour)” value in data set [15] came to 0.

As to `C[C@H]1CC(=O)C[C@@H]2CC[C@H]3[C@@H]4CC[C@H](O)[C@@]4(C)CC[C@@H]3[C@]21C` [MESTEROLONE], the “Hepatotoxicity (moderate)” value amounted to 0% in data set [1] and 0 in data set [4]. Besides, the “Hepatotoxicity (acute)” value in data set [2] is listed as 0%; in data set [5], 1. Also, the “Hepatotoxicity (time to onset)” value in data set [3] amounted to 2 years. Besides, the “Hepatotoxicity (cytolytic)” value in data set [6] is 1. In data set [7], the “Hepatotoxicity (choleostasis)” value was 0. Further, the “Hepatotoxicity (severe hepatitis)” value in [8] was 0. Moreover, the “Hepatotoxicity (chronic liver disease)” value in [9] was 0. For the same compound, in [10], the “Hepatotoxicity (cirrhosis)” value was determined as 0. For the same compound, in [11], the “Hepatotoxicity (granulomatous hepatitis)” value was found to be 0. Besides, the “Hepatotoxicity (association with vascular disease)” value in [12] is listed as 0. In [13], the “Hepatotoxicity (steatosis)” value amounted to 0. Further, the “Hepatotoxicity (malignant tumour)” value in data set [14] was 0. Further, the “Hepatotoxicity (benign tumour)” value in data set [15] amounted to 0.

`CCN(CC)C(=O)C1(c2ccccc2)CC1CN` (stereo not given): the “Hepatotoxicity (moderate)” value in data set [1] was 0%; in [4], 0. Besides, the “Hepatotoxicity (acute)” value is on record as 0% in data set [2] and 1 in [5]. For the same compound, the “Hepatotoxicity (time to onset)” value in data set [3] is 6 months. Besides, in [6], the “Hepatotoxicity (cytolytic)” value is on record as 1. Besides, the “Hepatotoxicity (choleostasis)” value in [7] was determined as 0. Further, the “Hepatotoxicity (severe hepatitis)” value in data set [8] came to 0. In addition, the “Hepatotoxicity (chronic liver disease)” value in data set [9] stood at 0. The “Hepatotoxicity (cirrhosis)” value in data set [10] came to 0. Further, in [11], the “Hepatotoxicity (granulomatous hepatitis)” value worked out at 0. The “Hepatotoxicity (association with vascular disease)” value in [12] turned out to be 0. The “Hepatotoxicity (steatosis)” value in data set [13] is given as 0. Besides, the “Hepatotoxicity (malignant tumour)” value in data set [14] came out at 0. In addition, the “Hepatotoxicity (benign tumour)” value in data set [15] is 0.

On to `COc1cc2nc(N3CCN(C(=O)C4CCCO4)CC3)nc(N)c2cc1OC` (stereo not given) [TERAZOSIN], for which the entries for the “Hepatotoxicity (moderate)” value in data set [1] and in [4] were 1.9% and 1, respectively. The entries for the “Hepatotoxicity (acute)” value in data set [2] and in [5] were 0% and 1, respectively. Moreover, in data set [3], the “Hepatotoxicity (time to onset)” value was found to be 4 months. In [6], the “Hepatotoxicity (cytolytic)” value is reported as 0. Besides, the “Hepatotoxicity (choleostasis)” value in [7] was determined as 0. In data set [8], the “Hepatotoxicity (severe hepatitis)” value stood at 0. The “Hepatotoxicity (chronic liver disease)” value in data set [9] was 0. In data set [10], the “Hepatotoxicity (cirrhosis)” value was found to be 0. Also, the “Hepatotoxicity (granulomatous hepatitis)” value in data set [11] was 0. Further, the “Hepatotoxicity (association with vascular disease)” value in data set [12] was found to be 0. Besides, in data set [13], the “Hepatotoxicity (steatosis)” value was determined as 0. In [14], the “Hepatotoxicity (malignant tumour)” value came to 0. Also, in [15], the “Hepatotoxicity (benign tumour)” value is reported as 0.

With `NC(CO)C(=O)NNCc1ccc(O)c(O)c1O` (stereo not given) [BENSERAZIDE], the “Hepatotoxicity (moderate)” value in data set [1] turned out to be 0%; in data set [4], 0. In addition, the “Hepatotoxicity (acute)” value in data set [2] amounted to 3.3%; in data set [5] it was 1. Besides, in data set [3], the “Hepatotoxicity (time to onset)” value is on record as less than 3 months. Moreover, in data set [6], the “Hepatotoxicity (cytolytic)” value was determined as 0. In data set [7], the “Hepatotoxicity (choleostasis)” value is reported as 0. Also, the “Hepatotoxicity (severe hepatitis)” value in [8] was found to be 0. Further, in data set [9], the “Hepatotoxicity (chronic liver disease)” value was found to be 0. For the same compound, in data set [10], the “Hepatotoxicity (cirrhosis)” value was 0. Moreover, the “Hepatotoxicity (granulomatous hepatitis)” value in [11] is reported as 0. For the same compound, in data set [12], the “Hepatotoxicity (association with vascular disease)” value came out at 0. The “Hepatotoxicity (steatosis)” value in [13] amounted to 0. Besides, the “Hepatotoxicity (malignant tumour)” value in data set [14] was 0. The “Hepatotoxicity (benign tumour)” value in data set [15] came out at 0.

On to `CCN(CC)CCOc1ccc(C(=C(Cl)c2ccccc2)c2ccccc2)cc1` [CLOMIPHENE], for which the “Hepatotoxicity (moderate)” value was 0% in data set [1] and 1 in data set [4]. Besides, the “Hepatotoxicity (acute)” value in data set [2] was found to be 0%; in data set [5], 2. Moreover, the “Hepatotoxicity (time to onset)” value in [3] worked out at 2 weeks - 8 years. Moreover, the “Hepatotoxicity (cytolytic)” value in data set [6] worked out at 1. In addition, in data set [7], the “Hepatotoxicity (choleostasis)” value is 1. For the same compound, the “Hepatotoxicity (severe hepatitis)” value in data set [8] was found to be 0. The “Hepatotoxicity (chronic liver disease)” value in [9] came out at 0. For the same compound, the “Hepatotoxicity (cirrhosis)” value in data set [10] is 0. In data set [11], the “Hepatotoxicity (granulomatous hepatitis)” value came out at 0. In addition, the “Hepatotoxicity (association with vascular disease)” value in data set [12] stood at 0. Besides, the “Hepatotoxicity (steatosis)” value in data set [13] was 0. For the same compound, the “Hepatotoxicity (malignant tumour)” value in [14] stood at 1. In addition, the “Hepatotoxicity (benign tumour)” value in [15] worked out at 1.

As to `Fc1ccccc1C1=NCC(=S)N(CC(F)(F)F)c2ccc(Cl)cc21` [QUAZEPAM], the “Hepatotoxicity (moderate)” value in [1] is reported as 0%; in data set [4] it was 1. In addition, the “Hepatotoxicity (acute)” value in data set [2] was found to be 0%; in data set [5], 0. Further, in [3], the “Hepatotoxicity (time to onset)” value stood at 4 weeks. Also, the “Hepatotoxicity (cytolytic)” value in data set [6] was determined as 0. For the same compound, the “Hepatotoxicity (choleostasis)” value in data set [7] is on record as 0. Besides, in data set [8], the “Hepatotoxicity (severe hepatitis)” value is listed as 0. In addition, the “Hepatotoxicity (chronic liver disease)” value in data set [9] was found to be 0. In addition, the “Hepatotoxicity (cirrhosis)” value in data set [10] worked out at 0. Also, the “Hepatotoxicity (granulomatous hepatitis)” value in [11] is 0. The “Hepatotoxicity (association with vascular disease)” value in data set [12] is 0. For the same compound, in data set [13], the “Hepatotoxicity (steatosis)” value is listed as 0. For the same compound, in data set [14], the “Hepatotoxicity (malignant tumour)” value is recorded as 0. In [15], the “Hepatotoxicity (benign tumour)” value came to 0.
